According to paper PMC3579312 (Journal of Medicinal Chemistry, 2013):
Entries after “also recorded” stand apart in the source; their conditions may differ.

Columns and labels:
[1] = test system: Trypanosoma brucei brucei bloodstream-form (strain 427); test: Trypanocidal activity, Alamar Blue viability, 72 h; type: cell-based; settings: for Selectivity Index: HeLa EC50 versus T. brucei EC50; for combined trypanocidal action of 22s with nifurtimox: Figure 4
22s-resistant T. brucei = test: Trypanocidal activity against cloned 22s-resistant cell line; type: cell-based, Trypanosoma brucei; settings: 22s in 22s-resistant cells versus nifurtimox in wild-type
[2] = test system: human African trypanosomiasis; settings: cited from earlier work
[3] = test system: nifurtimox-resistant T. brucei; test: Trypanocidal activity against cloned nifurtimox-resistant cell line; type: cell-based, Trypanosoma brucei
Chagas’ disease = settings: patients with Chagas’ disease; cited from earlier work

Structure (SMILES): COC(=O)c1ccc([N+](=O)[O-])o1 [Compound 19]
- activity against T. brucei (in words) [1]: inactive

Structure (SMILES): O=C(Nc1ccc(O)c(C(F)(F)F)c1)c1ccc([N+](=O)[O-])o1 [Compound 22r]
- Selectivity Index [1]: >9

Structure (SMILES): COc1ccc(NC(=O)c2ccc([N+](=O)[O-])o2)cc1 [Compound 22k]
- Selectivity Index [1]: >261

Structure (SMILES): COC(=O)c1ccc(NC(=O)c2ccc([N+](=O)[O-])o2)cc1 [Compound 22j]
- Selectivity Index [1]: >29

Structure (SMILES): CCc1cc(C(N)=O)c(NC(=O)c2ccc([N+](=O)[O-])o2)s1 [Compound 12g, N-(3-Carbamoyl-5-ethylthiophen-2-yl)-5-nitrofuran-2-carboxamide]
- Selectivity Index [1]: >1155

Structure (SMILES): C=CCOc1ccc(NC(=O)c2ccc([N+](=O)[O-])o2)cc1C(F)(F)F [Compound 22s, N-(4-(Allyloxy)-3-(trifluoromethyl)phenyl)-5-nitrofuran-2-carboxamide]
- potency in 22s-resistant cells relative to nifurtimox in wild-type T. brucei (22s-resistant T. brucei): ~70 times
- Selectivity Index [1]: >8330
- combined trypanocidal action of 22s with nifurtimox ([1]; nifurtimox <700 nM, EC50 of 22s): synergy can be observed; also recorded: synergistic relationship
- combined trypanocidal action of 22s with nifurtimox ([1]; nifurtimox above 700 nM): distinct lack of synergy

Structure (SMILES): CCCCOC(=O)c1cc(CC)sc1NC(=O)c1ccc([N+](=O)[O-])o1 [Compound 12d]
- Selectivity Index [1]: >625

Structure (SMILES): CCCCNC(=O)c1cc(CC)sc1NC(=O)c1ccc([N+](=O)[O-])o1 [Compound 12f]
- Selectivity Index [1]: >60

Structure (SMILES): CCc1cc(C(N)=O)c(NC(=O)c2cccc([N+](=O)[O-])c2)s1 [Compound 20b]
- Selectivity Index [1]: >8

Structure (SMILES): CCOC(=O)c1ccsc1NC(=O)c1ccc([N+](=O)[O-])o1 [Compound 12k]
- Selectivity Index [1]: >278

Structure (SMILES): CCNC(=O)c1cc(CC)sc1NC(=O)c1ccc([N+](=O)[O-])o1 [Compound 12e]
- Selectivity Index [1]: >136

Structure (SMILES): O=C(Nc1cccs1)c1ccc([N+](=O)[O-])o1 [Compound 12j]
- Selectivity Index [1]: >322

Structure (SMILES): C=CCOc1ccc(N(CC=C)C(=O)c2ccc([N+](=O)[O-])o2)cc1C(F)(F)F [Compound 22t]
- Selectivity Index [1]: >9

Structure (SMILES): COc1cc(NC(=O)c2ccc([N+](=O)[O-])o2)cc(C(F)(F)F)c1 [Compound 22m]
- Selectivity Index [1]: >752

Structure (SMILES): CCc1cc(C(N)=O)c(N)s1 [Compound 13g]
- activity against T. brucei (in words) [1]: inactive

Structure (SMILES): O=C(Nc1cccc(Br)c1)c1ccc([N+](=O)[O-])o1 [Compound 22f]
- Selectivity Index [1]: >192

Structure (SMILES): O=C(Nc1ccc(Cl)cc1)c1ccc([N+](=O)[O-])o1 [Compound 22i]
- Selectivity Index [1]: >48

Structure (SMILES): COc1ccc(NC(=O)c2ccc([N+](=O)[O-])o2)cc1C [Compound 22v]
- Selectivity Index [1]: >525

Structure (SMILES): O=C(Nc1ccc(O)cc1)c1ccc([N+](=O)[O-])o1 [Compound 22p]
- Selectivity Index [1]: >50

Structure (SMILES): O=C(Nc1ccccc1)c1ccc([N+](=O)[O-])o1 [Compound 22b]
- Selectivity Index [1]: >710

Structure (SMILES): Nc1nc(N)nc(Nc2ccc([As]3SCC(CO)S3)cc2)n1 (stereo not shown) [Melarsoprol (3), melarsoprol]
- death, share of cases ([2]; HAT patients): ~6%
- treatment failure rate ([2]; in certain areas): ≤ 30%

Structure (SMILES): CC1CS(=O)(=O)CCN1/N=C/c1ccc([N+](=O)[O-])o1 (stereo not shown) [Nifurtimox (5), Nifurtimox]
- EC50 ([3]; Trypanosoma brucei, read-out: EC50, nifurtimox resistant cells): 20.9 ± 1.7 µM
- fold increase in EC50 (less sensitive) versus wild-type cells ([3]; nifurtimox-resistant versus wild-type): 9–10 fold
- EC50 ([1]; read-out: T. brucei EC50, wild-type bloodstream form, 72 h): 2.1 ± 0.2 µM
- treatment cessation due to adverse side effects, share of patients (Chagas’ disease): over 30%

Structure (SMILES): O=C(Nc1ccc(C(F)(F)F)cc1)c1ccc([N+](=O)[O-])o1 [Compound 22h, 5-Nitro-N-(4-(trifluoromethyl)phenyl)furan-2-carboxamide]
- Selectivity Index [1]: >158

Structure (SMILES): O=C(NCc1cccc(C(F)(F)F)c1)c1ccc([N+](=O)[O-])o1 [Compound 22l, 5-nitro-N-(3-(trifluoromethyl)benzyl)furan-2-carboxamide]
- Selectivity Index [1]: >1149

Structure (SMILES): CCOC(=O)c1cc(CC)sc1NC(=O)c1ccc([N+](=O)[O-])o1 [Compound 12a, Ethyl 5-Ethyl-2-(5-nitrofuran-2-carboxamido)thiophene-3-carboxylate]
- Selectivity Index [1]: >640

Structure (SMILES): CCc1cc(C(=O)NCCO)c(NC(=O)c2ccc([N+](=O)[O-])o2)s1 [Compound 12h]
- Selectivity Index [1]: >253

Structure (SMILES): O=C(Nc1cc(C(F)(F)F)cc(C(F)(F)F)c1)c1ccc([N+](=O)[O-])o1 [Compound 22n]
- Selectivity Index [1]: >78

Structure (SMILES): CCCCc1cc(C(=O)OCC)c(NC(=O)c2ccc([N+](=O)[O-])o2)s1 [Compound 12b]
- Selectivity Index [1]: >160

Structure (SMILES): CCOC(=O)c1cc(CC)sc1NC(=O)c1ccco1 [Compound 18a]
- activity against T. brucei (in words) [1]: no activity

Structure (SMILES): COc1cccc(NC(=O)c2ccc([N+](=O)[O-])o2)c1 [Compound 22g]
- Selectivity Index [1]: >345
